Source: patent US10106501B2, “Nuclear receptor modulators” (AbbVie Inc., priority 2015, dated 2018)

These compounds were tested against T1, chimeric human RORγ-Gal4 receptor (Homo sapiens, UniProt P51449) (assay: transient transactivation assay (RORγ-Gal4 luciferase reporter)). Conditions: Cos-7 cells transfected with RORγ-Gal4 and 5Gal4 pGL3 TK Luc reporter; overnight incubation; T0901317 at 10^-5 M as reference; read-out: IC50.
T1 sequence (P51449 269-508 limits assumed): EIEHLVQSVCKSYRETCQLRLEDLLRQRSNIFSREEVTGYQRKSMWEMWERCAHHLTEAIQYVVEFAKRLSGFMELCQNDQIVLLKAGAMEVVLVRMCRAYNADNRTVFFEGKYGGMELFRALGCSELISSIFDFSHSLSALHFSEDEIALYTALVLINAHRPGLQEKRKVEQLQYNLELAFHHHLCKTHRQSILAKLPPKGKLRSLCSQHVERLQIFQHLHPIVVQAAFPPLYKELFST
Format: cell-based
An IC50 of 100 to 500 nM was found for `Cc1cc(C(F)(F)F)cc2c1cc(Cc1c(Cl)ccc(C(=O)N3C[C@@]4(C(=O)O)CC[C@@H]3C4)c1Cl)n2C` [Example B-16] in this work. An IC50 of 100 to 500 nM was found for `Cc1cc(C(F)(F)F)cc2c1cc(Cc1c(Cl)ccc(C(=O)N3CC(C)(C(=O)O)C3)c1Cl)n2C` [Example B-5] in this work. An IC50 of under 100 nM was found for `Cc1cc(C(F)(F)F)cc2c1cc(Cc1c(Cl)ccc(C(=O)N3CCN(C4COC4)CC3)c1Cl)n2C` [Example A1, (2,4-dichloro-3-((1,4-dimethyl-6-(trifluoromethyl)-1H-indol-2-yl)methyl)phenyl)(4-(oxetan-3-yl)piperazin-1-yl)methanone] in this work. An IC50 of under 100 nM was found for `Cc1c(C#N)ccc2c1cc(Cc1c(Cl)ccc(C(=O)N3CCC(CC(=O)O)CC3)c1Cl)n2C` [EY, 2-(1-(2,4-dichloro-3-((5-cyano-1,4-dimethyl-1H-indol-2-yl)methyl)benzoyl)piperidin-4-yl)acetic acid] in this work. An IC50 of under 100 nM was found for `Cc1cc(C#N)nc2c1cc(Cc1c(Cl)ccc(C(=O)N3CCC(C4COC4)CC3)c1Cl)n2C` [CL-2] in this work. An IC50 of 100 to 500 nM was found for `Cc1cc(C(F)(F)F)cc2c1nc(Cc1c(Cl)ccc(C(=O)N3CCC(CCO)CC3)c1Cl)n2C` [BJ-16] in this work. An IC50 of under 100 nM was found for `Cc1cc(C(F)(F)F)cc2c1c(Cc1c(Cl)ccc(C(=O)N3CCC(CC(=O)O)CC3)c1Cl)cn2C` [F, 2-(1-(2,4-dichloro-3-((1,4-dimethyl-6-(trifluoromethyl)-1H-indol-3-yl)methyl)benzoyl)piperidin-4-yl)acetic acid] in this work. An IC50 of 1000 to 10000 nM was found for `Cc1ncc(C(=O)N2CCC(C3COC3)CC2)c(C)c1C(=O)c1cc2c(C)cc(C#N)cc2n1C` [Example BD, 2-[2,4-dimethyl-5-[4-(oxetan-3-yl)piperidine-1-carbonyl]pyridine-3-carbonyl]-1,4-dimethyl-indole-6-carbonitrile] in this work. An IC50 of 100 to 500 nM was found for `Cc1cc(C(F)(F)F)nn2c(C)c(Cc3c(Cl)ccc(C(=O)N4CCN(C5COC5)CC4)c3Cl)nc12` [CZ-1] in this work. An IC50 of 100 to 500 nM was found for `Cc1cc(C#N)cc2c1cc(Cc1c(Cl)ccc(C(=O)N3CCCN(CCO)CC3)c1Cl)n2C` [AA-13] in this work. An IC50 of under 100 nM was found for `Cc1cc(OC(F)F)cc2c1cc(Cc1c(Cl)ccc(C(=O)N3CCC(CC(=O)O)CC3)c1Cl)n2C` [Example FF, 2-(1-(2,4-dichloro-3-((6-(difluoromethoxy)-1,4-dimethyl-1H-indol-2-yl)methyl)benzoyl)piperidin-4-yl)acetic acid] in this work. An IC50 of 100 to 500 nM was found for `Cc1cc(C(F)(F)F)cc2c1nc(Cc1c(Cl)ccc(C(=O)N3CCN(C4COC4)CC3)c1Cl)n2C` [BJ-38] in this work. An IC50 of 1000 to 10000 nM was found for `Cn1c(C(=O)c2c(Cl)ccc(C(=O)N3CCOCC3)c2Cl)cc2ncc(C(F)(F)F)cc21` [CP, (2,4-dichloro-3-(1-methyl-6-(trifluoromethyl)-1H-pyrrolo[3,2-b]pyridine-2-carbonyl)phenyl)(morpholino)methanone] in this work. An IC50 of under 100 nM was found for `Cc1cc(OC(F)(F)F)cc2c1c(Cc1c(Cl)ccc(C(=O)N3CCC(C(=O)O)CC3)c1Cl)cn2C` [DU, 1-[2,4-dichloro-3-[[1,4-dimethyl-6-(trifluoromethoxy)-1H-indol-3-yl]methyl]benzoyl]piperidine-4-carboxylic acid] in this work. An IC50 of under 100 nM was found for `Cc1cc(C(F)(F)F)cc2c1cc(C(=O)c1c(Cl)ccc(C(=O)N3CC[C@@H](C(=O)O)[C@@H](C)C3)c1Cl)n2C` [AQ-5] in this work. An IC50 of 500 to 1000 nM was found for `Cn1c(Cc2c(Cl)ccc(C(=O)N3CC[C@@H](F)[C@H](O)C3)c2Cl)cc2ccc(C(F)(F)F)cc21` [Example L-5] in this work. An IC50 of 500 to 1000 nM was found for `Cn1c(Cc2c(Cl)ccc(C(=O)N3CCOCC3)c2Cl)nc2c(C(F)(F)F)cc(C#N)cc21` [CF, 2-(2,6-dichloro-3-(morpholine-4-carbonyl)benzyl)-1-methyl-4-(trifluoromethyl)-1H-benzo[d]imidazole-6-carbonitrile] in this work. An IC50 of under 100 nM was found for `Cc1cc(OC(F)(F)F)cc2c1cc(Cc1c(Cl)ccc(C(=O)N3CC[C@H](C(=O)O)[C@H](C)C3)c1Cl)n2C` [DP-2, (3S,4S)-1-(2,4-dichloro-3-((1,4-dimethyl-6-(trifluoromethoxy)-1H-indol-2-yl)methyl)benzoyl)-3-methylpiperidine-4-carboxylic acid] in this work. An IC50 of under 100 nM was found for `CC(=O)n1c(Cc2c(Cl)ccc(C(=O)N3CCOCC3)c2Cl)cc2c(C)cc(C(F)(F)F)cc21` [Example D-2] in this work. An IC50 of under 100 nM was found for `Cc1cc(C(F)(F)F)cc2c1cc(Cc1c(Cl)ccc(C(=O)N3CCC(C(C)C(=O)O)CC3)c1Cl)n2C` (stereo not drawn) [Example B-19] in this work. An IC50 of under 100 nM was found for `Cc1cc(OC(F)(F)F)cc2c1c(Cc1c(Cl)cnc(C(=O)N3CCC(CC(=O)O)CC3)c1Cl)cn2C` [DX, 2-[1-[3,5-dichloro-4-[[1,4-dimethyl-6-(trifluoromethoxy)-1H-indol-3-yl]methyl]pyridine-2-carbonyl]-4-piperidyl]acetic acid] in this work. An IC50 of under 100 nM was found for `Cn1c(C(=O)c2c(Cl)ccc(C(=O)N3CCC(CC(=O)O)CC3)c2Cl)cc2ccc(OC(F)(F)F)cc21` [Example GI, 2-(1-(2,4-dichloro-3-(1-methyl-6-(trifluoromethoxy)-1H-indole-2-carbonyl)benzoyl)piperidin-4-yl)acetic acid] in this work. An IC50 of 100 to 500 nM was found for `Cc1cc(C(F)(F)F)cn2c(C)c(Cc3c(Cl)ccc(C(=O)N4CCC(C(C)O)CC4)c3Cl)nc12` (stereo not drawn) [CT-11] in this work. An IC50 of under 100 nM was found for `Cc1cn(Cc2c(Cl)ccc(C(=O)N3CC[C@@H](C(=O)O)[C@@H](C)C3)c2Cl)c2c(C)cc(OC(F)(F)F)cc12` [EG-2] in this work. An IC50 of under 100 nM was found for `Cc1cc(C(F)(F)F)cc2occ(Cc3c(Cl)ccc(C(=O)N4CCC(CC(=O)O)CC4)c3Cl)c12` [DZ, 2-(1-(2,4-dichloro-3-((4-methyl-6-(trifluoromethyl)benzofuran-3-yl)methyl)benzoyl)piperidin-4-yl)acetic acid] in this work. An IC50 of under 100 nM was found for `C[C@H]1CN(C(=O)c2ccc(Cl)c(Cc3cc4c(F)cc(C(F)(F)F)cc4n3C)c2Cl)CC[C@H]1C(=O)O` [FE-4] in this work. An IC50 of 100 to 500 nM was found for `Cc1cc(C#N)cc2c1cc(Cc1c(Cl)ccc(O[C@H]3CC[C@H](C(=O)O)C3)c1Cl)n2C` (relative stereo) [Example AG, trans-3-(2,4-dichloro-3-((6-cyano-1,4-dimethyl-1H-indol-2-yl)methyl)phenoxy)cyclopentanecarboxylic acid] in this work. An IC50 of under 100 nM was found for `Cc1cn(Cc2c(Cl)ccc(C(=O)N3CC[C@@H](C(=O)O)[C@@H](C)C3)c2Cl)c2c(C)cc(C(F)(F)F)cc12` [DH1-2] in this work. An IC50 of 100 to 500 nM was found for `Cc1cc(C(F)(F)F)cc2c1cc(Cc1c(Cl)ccc(C(=O)N3CCN(C(C)(C)C(=O)O)CC3)c1Cl)n2C` [Example T, 2-(4-(2,4-dichloro-3-((1,4-dimethyl-6-(trifluoromethyl)-1H-indol-2-yl)methyl)benzoyl)piperazin-1-yl)-2-methylpropanoic acid] in this work. An IC50 of under 100 nM was found for `Cc1cc(C(F)(F)F)nc2c1cc(C(=O)c1c(Cl)ccc(C(=O)N3CCC(S(C)(=O)=O)CC3)c1Cl)n2C` [Example GB, (2,4-dichloro-3-(1,4-dimethyl-6-(trifluoromethyl)-1H-pyrrolo[2,3-b]pyridine-2-carbonyl)phenyl)(4-(methylsulfonyl)piperidin-1-yl)methanone] in this work. An IC50 of 100 to 500 nM was found for `Cc1cc(C#N)cc2c1cc(Cc1c(Cl)ccc(O[C@H]3CC[C@H](C(=O)O)CC3)c1Cl)n2C` [Example AF, trans-4-(2,4-dichloro-3-((6-cyano-1,4-dimethyl-1H-indol-2-yl)methyl)phenoxy)cyclohexanecarboxylic acid] in this work. An IC50 of 1000 to 10000 nM was found for `Cc1cc(C#N)nn2c(C)c(Cc3c(Cl)ccc(C(=O)N4CCOCC4)c3Cl)nc12` [DA, 2-(2,6-dichloro-3-(morpholine-4-carbonyl)benzyl)-3,8-dimethylimidazo[1,2-b]pyridazine-6-carbonitrile] in this work. An IC50 of 100 to 500 nM was found for `Cc1cc(C(F)(F)F)cc2c1nc(Cc1c(Cl)ccc(CN3CCC4(CCOC4)CC3)c1Cl)n2C` [BW-8] in this work. An IC50 of over 10000 nM was found for `Cc1cc(C(F)(F)F)cn2c(C)c(Cc3c(Cl)ccc(C(=O)N4CCC(O)C4)c3Cl)nc12` (stereo not drawn) [CT-4] in this work. An IC50 of 1000 to 10000 nM was found for `Cc1cc(C(F)(F)F)cc2c1nc(Cc1c(Cl)ccc(C(=O)N3C[C@@H]4[C@H](C3)[C@H]4C(=O)O)c1Cl)n2C` [Example BL, (1R,5S,6r)-3-(2,4-dichloro-3-((1,4-dimethyl-6-(trifluoromethyl)-1H-benzo[d]imidazol-2-yl)methyl)benzoyl)-3-azabicyclo[3.1.0]hexane-6-carboxylic acid] in this work. An IC50 of 500 to 1000 nM was found for `CCN(CCO)Cc1ccc(Cl)c(Cc2nc3c(C)cc(C(F)(F)F)cc3n2C)c1Cl` [BW-18] in this work. An IC50 of under 100 nM was found for `Cc1cn(C(=O)c2c(Cl)ccc(C(=O)N3CCC(CC(=O)O)CC3)c2Cl)c2c(C)cc(C#N)cc12` [DN, 2-(1-(2,4-dichloro-3-(5-cyano-3,7-dimethyl-1H-indole-1-carbonyl)benzoyl)piperidin-4-yl)acetic acid] in this work. An IC50 of under 100 nM was found for `Cc1cc(OC(F)(F)F)cc2c1c(Cc1c(Cl)ccc(C(=O)N3CCC(C(=O)O)C(C)C3)c1Cl)cn2C` (stereo not drawn) [DU1-2] in this work. An IC50 of under 100 nM was found for `Cc1cc(C(F)(F)F)cc2ccn(C(=O)c3c(Cl)ccc(C(=O)N4CCC(CC(=O)O)CC4)c3Cl)c12` [ES, 2-(1-(2,4-dichloro-3-(7-methyl-5-(trifluoromethyl)-1H-indole-1-carbonyl)benzoyl)piperidin-4-yl)acetic acid] in this work. An IC50 of under 100 nM was found for `Cc1cc(C(F)(F)F)cc2c1cc(Cc1c(Cl)ccc(C(=O)N3CCOCC3)c1Cl)n2C` [D, (2,4-dichloro-3-((1,4-dimethyl-6-(trifluoromethyl)-1H-indol-2-yl)methyl)phenyl)(morpholino)methanone] in this work. An IC50 of 100 to 500 nM was found for `Cn1c(Cc2c(Cl)ccc(C(=O)N3CCOCC3)c2Cl)cc2ccc(C#N)cc21` [Example AC, 2-(2,6-dichloro-3-(morpholine-4-carbonyl)benzyl)-1-methyl-1H-indole-6-carbonitrile] in this work. An IC50 of under 100 nM was found for `Cc1cc(C#N)cc2c1cc(Cc1c(Cl)ccc(C(=O)N3CCC(C(C)O)CC3)c1Cl)n2C` (stereo not drawn) [AA-1] in this work.
